Legend:
Format in all cases: cell-based, Escherichia coli
[1] = system: K-12 (empty pCA24N); experiment: MIC of strains harboring ASKA plasmids; settings: 0.1 mM IPTG; for MIC, K-12 (empty pCA24N), Chlor +: 25 μg/mL chloramphenicol selection; for MIC, K-12 (empty pCA24N), Chlor −: no plasmid selection
[2] = system: EKO-35 yjfC (pCA24N); experiment: MIC of strains harboring ASKA plasmids; settings: 0.1 mM IPTG; for MIC, EKO-35 yjfC (pCA24N), Chlor +: 4 μg/mL chloramphenicol selection; for MIC, EKO-35 yjfC (pCA24N), Chlor −: no plasmid selection
[3] = system: EKO-35 wcaC (pCA24N); experiment: MIC of strains harboring ASKA plasmids; settings: 0.1 mM IPTG; for MIC, EKO-35 wcaC (pCA24N), Chlor +: 4 μg/mL chloramphenicol selection; for MIC, EKO-35 wcaC (pCA24N), Chlor −: no plasmid selection
[4] = system: ΔtolC (empty pCA24N); experiment: microbe, parasite or virus in culture; settings: 0.1 mM IPTG; for MIC, ΔtolC (empty pCA24N), Chlor −: no plasmid selection; for MIC, ΔtolC (empty pCA24N), Chlor +: with chloramphenicol plasmid selection
[5] = system: EKO-35 pitA (pCA24N); experiment: MIC of strains harboring ASKA plasmids; settings: 0.1 mM IPTG; no plasmid selection

Row | SMILES | MIC, K-12 (empty pCA24N), Chlor + [1] [μg/mL] | MIC, K-12 (empty pCA24N), Chlor − [1] [μg/mL] | MIC, EKO-35 yjfC (pCA24N), Chlor + [2] [μg/mL] | MIC, EKO-35 yjfC (pCA24N), Chlor − [2] [μg/mL] | MIC, EKO-35 wcaC (pCA24N), Chlor + [3] [μg/mL] | MIC, EKO-35 wcaC (pCA24N), Chlor − [3] [μg/mL] | MIC, ΔtolC (empty pCA24N), Chlor − [4] [μg/mL] | MIC, ΔtolC (empty pCA24N), Chlor + [4] [μg/mL] | MIC, EKO-35 pitA (pCA24N), Chlor − [5] [μg/mL]
1 | Cn1cc(Br)c(-c2cccc(NC(=O)Nc3ccc(OC(F)(F)F)cc3)c2)n1 [compound 14] | >5 | >5 | >5 | >5 | >5 | >5 | 1.25 | 1.25 | >5
2 | O=C(Nc1ccccc1C(=O)Nc1nnc(C(F)(F)F)s1)c1ccccc1Cl [compound 19] | >5 | >5 | >5 | >5 | >5 | >5 | 2.5 | 2.5 | >5
3 | N#Cc1ccc(-c2c(NC(=O)C(Cl)Cl)oc(-c3cccs3)c2C#N)cc1 [compound 2] | >5 | >5 | >5 | >5 | >5 | >5 | 1.25 | 1.25 | >5
